The values that follow come from US20230116703A1, “NOVEL ERGOLINES AND METHODS OF TREATING MOOD DISORDERS” (priority 2021, published 2023).

In the experiment the test system is C57BL/6 mice. In words: Marble burying test (MBT) in mice. It is filed as in vivo. The note with it: mouse, SC, 30-minute period. How it is done: Compound 1 produced an anxiolytic-like effect in the marble burying test (MBT) in C57BL/6 mice (FIG. 3).
Animals. Adult male C57BL/6 mice, aged 8-10 weeks (body weight 20-25 g) were used in these experiments. Animals were housed under controlled temperatures and 12-hour light/dark cycles (lights on between 07:00-19:00 h), with ad libitum food and water. This study was carried out in strict accordance with the requirements of the Committee for the Purpose of Control and Supervision of Experiments on Animals (CPCSEA), India. All efforts were made to minimize suffering.
Drugs and Drug Administration. Compound 1 was synthesized as described above. Desipramine HCl was commercially obtained. The test compound, vehicle, and the positive control desipramine were administered subcutaneously (SC), with doses calculated based on the freebase. Normal saline was used as the vehicle. All compounds were administered at a volume of 10 mL/kg. All treatments were administered 30 minutes prior to the start of behavioral testing. Group size was n=9-10 per treatment.
Marble Burying Test (MBT). […] Mice were handled for about 2 min daily for the 3 days prior to the beginning of the experimental procedure. […] The total number of marbles buried were counted in three 10-minute time bins (total 30 minutes). […]

As for `CCCN1C[C@H](C(=O)N(CC)CC)C=C2c3cccc4[nH]cc(c34)C[C@H]21` [Compound 1, (6aR,9R)—N,N-diethyl-7-propyl-4,6,6a,7,8,9-hexahydroindolo[4,3-fg]quinoline-9-carboxamide], the “number of marbles buried compared to vehicle (in words)” value is listed as “reduced the number of marbles buried”.
